Measurements from ChEMBL document CHEMBL5365540, “Structure-activity relationship studies and biological properties evaluation of peptidic NRP-1 ligands: Investigation of N-terminal cysteine importance” (Bioorg Med Chem, 2023).
Values belong to the molecule of their own block, whether it stands above or below them. Active and inactive are the calls of the source. The rule behind the calls is not given here. *1 amine or outer side, *2 acyl side, *3 side chain or, on linkers, in order; H or OH if unused. Where a SMILES comes first, the peptide text is derived from it. Side-chain parts run from the residue outwards. [ ]: non-standard residue; d: D form. The star is where a group is joined. ξ: configuration not given here. Biotin = O=C1N[C@H]2[C@H](CS[C@H]2CCCCC(=O)*)N1; Oic(3aξ,7aξ) = O=C(O)[C@@H]1CC2CCCCC2N1; X1 = O=C([C@H](CCCS)N[*:1])[*:2]; hArg = N=C(N)NCCCC[C@H](N)C(=O)O; hCys = N[C@@H](CCS)C(=O)O; X2 = N[C@@H](CCCS)C(=O)*; Aun = NCCCCCCCCCCC(=O)O; Dab = NCC[C@H](N)C(=O)O; Dap = NC[C@H](N)C(=O)O; X3 = CSC[C@H](N)C(=O)*; ξK = NCCCCC(N)C(=O)O; Mpa = O=C(O)CCS

How the values were obtained:
VEGA-NRP1 = VEGA-NRP1 (Homo sapiens, UniProt O14786); experiment: Inhibition of human biotinylated-VEGFA165 binding to recombinant human NRP-1 measured after 2 hrs by chemiluminescent based ELISA; type: protein assay; details: read-out: IC50
MDA-MB-231 [1] = experiment: Increase in NRP-1 expression in human MDA-MB-231 cell membrane at 5.9 uM preincubated for 15 mins at 4 degC followed by compound washout and further incubated for 60 mins with subsequent addition of compound at 37 degC by FITC-streptavidin staining based flow cytometry analysis; type: functional; details: time 75.0 min
MDA-MB-231 [2] = experiment: Increase in NRP-1 expression in human MDA-MB-231 cell membrane at 59 uM preincubated for 15 mins at 4 degC followed by compound washout and further incubated for 5 mins with subsequent addition of compound at 37 degC by FITC-streptavidin staining based flow cytometry analysis; type: functional; details: time 20.0 min
[3] = molecular target: Neuropilin-1 (Homo sapiens) (UniProt O14786); experiment: Binding affinity to NRP-1 in human MDA-MB-231 cells at 12.5 to 100 ug/ml measured after 15 mins by FITC-streptavidin staining based flow cytometry analysis; type: cell-based; details: dose 12.5-100 µg/ml
[4] = molecular target: Neuropilin-1 (Homo sapiens) (UniProt O14786); experiment: Binding affinity to NRP-1 in human MDA-MB-435 cells at 12.5 to 100 ug/ml measured after 15 mins by FITC-streptavidin staining based flow cytometry analysis; type: cell-based; details: dose 12.5-100 µg/ml
Cell membrane [5] = experiment: Binding affinity to human MDA-MB-231 cell membrane at 59 uM preincubated for 15 mins at 4 degC followed by compound washout and further incubated for 5 mins with subsequent addition of compound at 37 degC by FITC-streptavidin staining based flow cytometry analysis; type: subcellular; details: time 20.0 min
Cell membrane [6] = experiment: Binding affinity to human MDA-MB-231 cell membrane at 59 uM measured after 15 mins at 4 degC by Alexa Fluor 594-streptavidin staining based fluorescence microscopy; type: subcellular
Cell membrane [7] = experiment: Binding affinity to human MDA-MB-231 cell membrane at 59 uM preincubated for 15 mins at 4 degC followed by compound washout and further incubated for 5 mins with subsequent addition of compound at 37 degC by Alexa Fluor 594-streptavidin staining based fluorescence microscopy; type: subcellular; details: time 20.0 min
MDA-MB-231 [8] = experiment: Increase in NRP-1 expression in human MDA-MB-231 cell membrane at 59 uM preincubated for 15 mins at 4 degC followed by compound washout and further incubated for 60 mins with subsequent addition of compound at 37 degC by FITC-streptavidin staining based flow cytometry analysis; type: functional; details: time 75.0 min
[9] = Half-life in human serum by LC-SWATH-MS analysis; type: ADME, cell-free
VEGA-NRP1 (Homo sapiens) = VEGA-NRP1 (Homo sapiens) (UniProt P15692+O14786); experiment: Inhibition of biotinylated-VEGFA165 (unknown origin) binding to C-terminal 6-His tagged human NRP-1 (Phe22 to Lys644 residues) expressed in mouse NS0 cells at 100 uM measured after 2 hrs by chemiluminescence assay relative to control; type: cell-based
VEGA-NRP1 (Homo sapiens), sequence (O14786 22-923 partner limits assumed): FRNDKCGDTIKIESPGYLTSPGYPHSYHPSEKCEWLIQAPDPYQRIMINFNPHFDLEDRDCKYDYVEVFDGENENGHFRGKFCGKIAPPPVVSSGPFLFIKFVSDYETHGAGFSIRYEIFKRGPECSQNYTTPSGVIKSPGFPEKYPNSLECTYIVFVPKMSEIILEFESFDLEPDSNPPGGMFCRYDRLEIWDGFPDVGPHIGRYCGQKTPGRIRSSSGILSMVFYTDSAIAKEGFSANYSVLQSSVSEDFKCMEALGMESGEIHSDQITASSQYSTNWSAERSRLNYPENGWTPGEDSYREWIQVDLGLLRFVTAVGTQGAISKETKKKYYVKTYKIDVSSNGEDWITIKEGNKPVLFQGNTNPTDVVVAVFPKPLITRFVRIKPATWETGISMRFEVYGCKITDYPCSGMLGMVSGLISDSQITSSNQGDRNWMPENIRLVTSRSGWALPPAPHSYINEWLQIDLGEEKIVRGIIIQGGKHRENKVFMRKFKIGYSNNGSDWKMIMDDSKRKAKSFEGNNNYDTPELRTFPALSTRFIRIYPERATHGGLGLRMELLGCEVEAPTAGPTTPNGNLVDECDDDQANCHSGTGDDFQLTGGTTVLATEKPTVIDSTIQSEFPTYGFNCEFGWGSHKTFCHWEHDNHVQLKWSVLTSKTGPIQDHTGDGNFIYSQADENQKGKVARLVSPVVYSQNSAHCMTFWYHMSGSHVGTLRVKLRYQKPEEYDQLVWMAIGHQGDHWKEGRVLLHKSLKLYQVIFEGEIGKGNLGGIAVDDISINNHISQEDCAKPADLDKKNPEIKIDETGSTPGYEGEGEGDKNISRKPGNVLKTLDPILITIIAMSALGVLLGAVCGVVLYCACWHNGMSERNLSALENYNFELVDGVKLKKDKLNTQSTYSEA
VEGA-NRP1 (Homo sapiens), sequence (P15692 whole entry): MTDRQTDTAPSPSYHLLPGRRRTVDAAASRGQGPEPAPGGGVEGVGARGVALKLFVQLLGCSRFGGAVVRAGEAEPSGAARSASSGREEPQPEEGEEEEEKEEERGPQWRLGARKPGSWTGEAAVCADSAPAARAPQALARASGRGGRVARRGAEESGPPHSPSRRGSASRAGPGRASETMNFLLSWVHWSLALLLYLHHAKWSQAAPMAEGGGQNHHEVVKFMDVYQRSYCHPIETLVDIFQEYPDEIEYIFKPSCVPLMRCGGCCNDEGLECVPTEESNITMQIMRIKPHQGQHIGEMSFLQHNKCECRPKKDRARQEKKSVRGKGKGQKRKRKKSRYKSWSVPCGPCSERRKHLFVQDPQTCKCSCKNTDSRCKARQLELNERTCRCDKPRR

Neuropilin-1 (Homo sapiens), sequence (O14786 whole entry): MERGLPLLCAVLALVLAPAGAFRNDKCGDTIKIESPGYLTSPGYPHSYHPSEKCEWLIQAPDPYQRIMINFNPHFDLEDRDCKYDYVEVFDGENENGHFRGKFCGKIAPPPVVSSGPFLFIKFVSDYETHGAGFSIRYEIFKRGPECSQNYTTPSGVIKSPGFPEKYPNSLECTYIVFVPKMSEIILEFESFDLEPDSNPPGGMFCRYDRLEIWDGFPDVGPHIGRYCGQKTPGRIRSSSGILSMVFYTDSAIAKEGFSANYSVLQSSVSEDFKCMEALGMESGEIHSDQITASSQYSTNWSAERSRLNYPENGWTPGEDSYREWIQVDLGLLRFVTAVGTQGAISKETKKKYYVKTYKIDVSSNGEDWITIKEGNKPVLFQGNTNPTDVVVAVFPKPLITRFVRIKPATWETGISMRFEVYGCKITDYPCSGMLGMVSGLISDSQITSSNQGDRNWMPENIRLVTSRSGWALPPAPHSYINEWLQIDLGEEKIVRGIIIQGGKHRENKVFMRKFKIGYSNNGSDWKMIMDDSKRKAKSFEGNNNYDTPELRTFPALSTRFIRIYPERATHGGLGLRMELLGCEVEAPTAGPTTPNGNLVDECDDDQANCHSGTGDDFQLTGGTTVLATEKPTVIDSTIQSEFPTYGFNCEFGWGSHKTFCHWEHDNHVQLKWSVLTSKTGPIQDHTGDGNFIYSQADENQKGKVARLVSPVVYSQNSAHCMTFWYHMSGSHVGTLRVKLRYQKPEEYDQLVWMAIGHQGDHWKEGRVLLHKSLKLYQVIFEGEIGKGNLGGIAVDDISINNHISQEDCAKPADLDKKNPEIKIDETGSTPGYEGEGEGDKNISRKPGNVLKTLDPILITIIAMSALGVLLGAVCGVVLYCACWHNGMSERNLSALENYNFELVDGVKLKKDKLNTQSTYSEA
VEGA-NRP1, sequence (P15692 whole entry): as the sequence (P15692 whole entry) above
VEGA-NRP1, sequence (O14786 whole entry): as the sequence (O14786 whole entry) above

Activity [3]: Active
Activity [4]: inactive
Activity (Cell membrane [5]): Active
Activity (Cell membrane [6]): Active
Activity (Cell membrane [7]): Active
Molecule: N=C(N)NCCCC[C@H](NC(=O)[C@@H](N)CS)C(=O)NCCCCC(NC(=O)CCCCCCCCCCNC(=O)CCCC[C@@H]1SC[C@@H]2NC(=O)N[C@@H]21)C(=O)N[C@@H](CCN)C(=O)N1C2CCCCC2C[C@H]1C(=O)N[C@@H](CCCNC(=N)N)C(=O)O (stereo partly drawn) ({Biotin-Aun}-[ξK]([hArg-Cys])[Dab][Oic(3aξ,7aξ)]R-OH)
Activity (MDA-MB-231 [1]): inactive
Activity (MDA-MB-231 [2]): Active
Activity (MDA-MB-231 [8]): Active

IC50 (VEGA-NRP1): 700 nM
Molecule: N=C(N)NCCCC[C@H](N)C(=O)NCCCC[C@H](NC(=O)[C@@H](N)CCS)C(=O)N[C@@H](CCN)C(=O)N1C2CCCCC2C[C@H]1C(=O)N[C@@H](CCCNC(=N)N)C(=O)O (stereo partly drawn) (H-[hCys]K(hArg)[Dab][Oic(3aξ,7aξ)]R-OH)

IC50 (VEGA-NRP1): 440 nM
Molecule: N=C(N)NCCCC[C@H](N)C(=O)NCCCC[C@H](NC(=O)[C@@H](N)CN)C(=O)N[C@@H](CCN)C(=O)N1C2CCCCC2C[C@H]1C(=O)N[C@@H](CCCNC(=N)N)C(=O)O (stereo partly drawn) (H-[Dap]K(hArg)[Dab][Oic(3aξ,7aξ)]R-OH)

inhibition (VEGA-NRP1 (Homo sapiens)): 96%
Molecule: C[C@@H](O)[C@H](NC(=O)[C@H](CCCNC(=N)N)NC(=O)[C@@H](N)CCC(=O)O)C(=O)N[C@@H](CS)C(=O)N[C@@H](CCCNC(=N)N)C(=O)N[C@@H](CS)C(=O)N[C@@H](CC(=O)O)C(=O)N[C@@H](CCCCN)C(=O)N1CCC[C@H]1C(=O)N[C@@H](CCCNC(=N)N)C(=O)N[C@@H](CCCNC(=N)N)C(=O)O (H-ERTCRCDKPRR-OH)

IC50 (VEGA-NRP1): 1540 nM
Molecule: N=C(N)NCCCC[C@H](N)C(=O)NCCCC[C@H](NC(=O)[C@@H](N)CO)C(=O)N[C@@H](CCN)C(=O)N1C2CCCCC2C[C@H]1C(=O)N[C@@H](CCCNC(=N)N)C(=O)O (stereo partly drawn) (HELM PEPTIDE1{S.K.[Dab].[O=C([C@@H]1CC2CCCCC2N1[*:1])[*:2]].R}|PEPTIDE2{[N=C(N)NCCCC[C@H](N)C(=O)[*:2]]}$PEPTIDE1,PEPTIDE2,2:R3-1:R2$$$V2.0)

IC50 (VEGA-NRP1): 2820 nM
Molecule: CSC[C@H](N)C(=O)N[C@@H](CCCCNC(=N)N)C(=O)NCCCC[C@H](N)C(=O)N[C@@H](CCN)C(=O)N1C2CCCCC2C[C@H]1C(=O)N[C@@H](CCCNC(=N)N)C(=O)O (stereo partly drawn) (H-K([hArg-X3])[Dab][Oic(3aξ,7aξ)]R-OH)

IC50 (VEGA-NRP1): 2480 nM
Molecule: CSC[C@H](N)C(=O)N[C@@H](CCCCNC(=O)[C@@H](N)CCCCNC(=N)N)C(=O)N[C@@H](CCN)C(=O)N1C2CCCCC2C[C@H]1C(=O)N[C@@H](CCCNC(=N)N)C(=O)O (stereo partly drawn) (H-C(Me)K(hArg)[Dab][Oic(3aξ,7aξ)]R-OH)

IC50 (VEGA-NRP1): 890 nM
Molecule: N=C(N)NCCCC[C@H](N)C(=O)NCCCC[C@H](NC(=O)[C@@H](N)CCCS)C(=O)N[C@@H](CCN)C(=O)N1C2CCCCC2C[C@H]1C(=O)N[C@@H](CCCNC(=N)N)C(=O)O (stereo partly drawn) (H-[X1]K(hArg)[Dab][Oic(3aξ,7aξ)]R-OH)

IC50 (VEGA-NRP1): 1330 nM
Molecule: N=C(N)NCCCC[C@H](NC(=O)[C@@H](N)CCCS)C(=O)NCCCC[C@H](N)C(=O)N[C@@H](CCN)C(=O)N1C2CCCCC2C[C@H]1C(=O)N[C@@H](CCCNC(=N)N)C(=O)O (stereo partly drawn) (H-K([hArg-X2])[Dab][Oic(3aξ,7aξ)]R-OH)

The next lines start with the molecule.

Molecule: CC[C@H](N)C(=O)N[C@@H](CCCCNC(=N)N)C(=O)NCCCC[C@H](N)C(=O)N[C@@H](CCN)C(=O)N1C2CCCCC2C[C@H]1C(=O)N[C@@H](CCCNC(=N)N)C(=O)O (stereo partly drawn) (HELM PEPTIDE1{K.[Dab].[O=C([C@@H]1CC2CCCCC2N1[*:1])[*:2]].R}|PEPTIDE2{[Abu].[N=C(N)NCCCC[C@H](N[*:1])C(=O)[*:2]]}$PEPTIDE1,PEPTIDE2,1:R3-2:R2$$$V2.0)
IC50 (VEGA-NRP1): 2480 nM

Molecule: N=C(N)NCCCC[C@H](NC(=O)CCS)C(=O)NCCCC[C@H](N)C(=O)N[C@@H](CCN)C(=O)N1C2CCCCC2C[C@H]1C(=O)N[C@@H](CCCNC(=N)N)C(=O)O (stereo partly drawn) (H-K([hArg-Mpa])[Dab][Oic(3aξ,7aξ)]R-OH)
IC50 (VEGA-NRP1): 2170 nM

Molecule: N=C(N)NCCCC[C@H](NC(=O)[C@@H](N)CO)C(=O)NCCCC[C@H](N)C(=O)N[C@@H](CCN)C(=O)N1C2CCCCC2C[C@H]1C(=O)N[C@@H](CCCNC(=N)N)C(=O)O (stereo partly drawn) (HELM PEPTIDE1{K.[Dab].[O=C([C@@H]1CC2CCCCC2N1[*:1])[*:2]].R}|PEPTIDE2{S.[N=C(N)NCCCC[C@H](N[*:1])C(=O)[*:2]]}$PEPTIDE1,PEPTIDE2,1:R3-2:R2$$$V2.0)
IC50 (VEGA-NRP1): 810 nM

Molecule: N=C(N)NCCCC[C@H](N)C(=O)NCCCC[C@H](NC(=O)CCS)C(=O)N[C@@H](CCN)C(=O)N1C2CCCCC2C[C@H]1C(=O)N[C@@H](CCCNC(=N)N)C(=O)O (stereo partly drawn) ([Mpa]K(hArg)[Dab][Oic(3aξ,7aξ)]R-OH)
IC50 (VEGA-NRP1): 1130 nM

Molecule: N=C(N)NCCCC[C@H](NC(=O)[C@@H](N)CN)C(=O)NCCCC[C@H](N)C(=O)N[C@@H](CCN)C(=O)N1C2CCCCC2C[C@H]1C(=O)N[C@@H](CCCNC(=N)N)C(=O)O (stereo partly drawn) (H-K([hArg-Dap])[Dab][Oic(3aξ,7aξ)]R-OH)
IC50 (VEGA-NRP1): 330 nM

Molecule: CC[C@H](N)C(=O)N[C@@H](CCCCNC(=O)[C@@H](N)CCCCNC(=N)N)C(=O)N[C@@H](CCN)C(=O)N1C2CCCCC2C[C@H]1C(=O)N[C@@H](CCCNC(=N)N)C(=O)O (stereo partly drawn) (HELM PEPTIDE1{[Abu].K.[Dab].[O=C([C@@H]1CC2CCCCC2N1[*:1])[*:2]].R}|PEPTIDE2{[N=C(N)NCCCC[C@H](N)C(=O)[*:2]]}$PEPTIDE1,PEPTIDE2,2:R3-1:R2$$$V2.0)
half-life [9]: 2 h
IC50 (VEGA-NRP1): 2410 nM

Molecule: N=C(N)NCCCC[C@H](NC(=O)[C@@H](N)CCS)C(=O)NCCCC[C@H](N)C(=O)N[C@@H](CCN)C(=O)N1C2CCCCC2C[C@H]1C(=O)N[C@@H](CCCNC(=N)N)C(=O)O (stereo partly drawn) (H-K([hArg-hCys])[Dab][Oic(3aξ,7aξ)]R-OH)
IC50 (VEGA-NRP1): 630 nM

Molecule: N=C(N)NCCCC[C@H](NC(=O)CCCCCCCCCCNC(=O)CCCC[C@@H]1SC[C@@H]2NC(=O)N[C@@H]21)C(=O)NCCCC[C@H](NC(=O)[C@@H](N)CS)C(=O)N[C@@H](CCN)C(=O)N1C2CCCCC2C[C@H]1C(=O)N[C@@H](CCCNC(=N)N)C(=O)O (stereo partly drawn) (H-CK([hArg-Aun-Biotin])[Dab][Oic(3aξ,7aξ)]R-OH)
Activity (MDA-MB-231 [1]): inactive
Activity (MDA-MB-231 [2]): Active
Activity [3]: Active
Activity [4]: inactive
Activity (Cell membrane [5]): Active
Activity (Cell membrane [6]): Active
Activity (Cell membrane [7]): Active
Activity (MDA-MB-231 [8]): Active

Molecule: H-CDKPRR-OH
inhibition (VEGA-NRP1 (Homo sapiens)): 96%
